Columns and labels:
[1] = system: BT474, SKBR3, AU565 and SUM190 cells; test: Apoptotic cell death (Annexin V FACS) in parental lapatinib-sensitive lines; assay type: cell-based; conditions: all four parental sensitive cell lines
Method: FIG. 2 is a set of graphs showing the percentage of cells undergoing apoptotic cell death for each of the four cell lines and their matched resistant cell line in the presence or absence of lapatinib and/or an MDM2 inhibitor, MI-219, as measured by FACS analysis for Annexin V. Results are expressed as mean +/− SEM of Annexin V positive cells.
BT474, SKBR3, and AU565 cells were obtained from ATCC. SUM190 cells were obtained from Asterand, Inc. All cell lines were cultured in RPMI medium containing 10% fetal bovine serum (FBS). Lapatinib-resistant cells (rBT474, rSKBR3, rAU565, and rSUM190) were established as previously described^14. Cobleigh, et al. J. Clin. Oncol. 17, 2639-2648 (1999). Lapatinib-resistant cells were grown in the presence of 1 μM lapatinib unless otherwise stated.

HER2 = HER2 (Homo sapiens, UniProt P04626); test: Immunoblot of phospho-HER2 in lapatinib-treated cells; assay type: cell-based; conditions: 1 μM lapatinib, 24 hours, z-VAD 50 μM; even in resistant cells
Mcl-1 [2] = test: Immunoblot of Mcl-1 protein levels; assay type: cell-based; conditions: 1 μM lapatinib
Method: FIG. 3 is a set of photographs showing that Mcl-1 is stabilized in lapatinib-resistant cells. […] FIG. 3B is a set of immunoblots showing the levels of HER2 and phospho-HER2 in untreated cells and cells treated with lapatinib. Cells were treated with or without lapatinib (1 μM) for 24 hours in the presence of the caspase inhibitor z-VAD (50 μM). The cells were harvested and cell lysates were immunoblotted using antibodies against phospho-HER2 (Y877) and total HER2. FIG. 3C is an immunoblot for phospho-AKT (T308) and total AKT. BT474 and rBT474 cells were treated with 1 μM lapatinib in the presence of 50 μM z-VAD. At the indicated time points, the cells were harvested and immunoblotted. FIG. 3D is an immunoblot for phospho-Erl1/2(T202/Y204) and total Erk1/2. BT474 and rBT474 cells were treated with 1 μM lapatinib in the presence of 50 μM z-VAD. At the indicated time points, the cells were harvested and immunoblotted. FIG. 3E is an immunoblot for Mcl-1, Bim, and Actin. BT474 and rBT474 cells (left) or SKBR3 and rSKBR3 cells (right) were treated with 1 μM lapatinib. The cells were harvested at the indicated time points and immunoblotted. FIG. 3F is an autoradiograph showing the ^35[S] radioactivity in lysates containing ^35[S]-Mcl-1 at the indicated time points. ^35[S]-labeled Mcl-1 protein was incubated in cell-free lysates prepared from BT474 and rBT474 cells (top) or SKBR3 and rSKBR3 cells (bottom). FIG. 3G is an autograph showing the ^35[S]-labeled Mcl-1 to monitor Mcl-1 stability over time. The ^35[S]-labeled Mcl-1 was incubated in lysates prepared from rBT474 cells treated with or without 1 μM lapatinib. FIG. 3H is an immunoblot for HA. SKBR3 or rSKBR3 cells were co-transfected with FLAG-Mcl-1 and HA-Ubiquitin (Ub). […] Cells were harvested after treatment with 10 μM MG 132 for 4 hours. FLAG-Mcl-1 was retrieved by immunoprecipitation using anti-flag agarose, and Mcl-1 ubiquitylation was analyzed by immunoblotting for HA (*non-specific band, **IgG heavy chain).

Mcl-1 [3] = test: Mcl-1 ubiquitylation (FLAG-Mcl-1 / HA-Ub immunoprecipitation); assay type: cell-based; conditions: 1 μM lapatinib, 24 hours
Method: FIG. 3 is a set of photographs showing that Mcl-1 is stabilized in lapatinib-resistant cells. […] FIG. 3B is a set of immunoblots showing the levels of HER2 and phospho-HER2 in untreated cells and cells treated with lapatinib. Cells were treated with or without lapatinib (1 μM) for 24 hours in the presence of the caspase inhibitor z-VAD (50 μM). The cells were harvested and cell lysates were immunoblotted using antibodies against phospho-HER2 (Y877) and total HER2. FIG. 3C is an immunoblot for phospho-AKT (T308) and total AKT. BT474 and rBT474 cells were treated with 1 μM lapatinib in the presence of 50 μM z-VAD. At the indicated time points, the cells were harvested and immunoblotted. FIG. 3D is an immunoblot for phospho-Erl1/2(T202/Y204) and total Erk1/2. BT474 and rBT474 cells were treated with 1 μM lapatinib in the presence of 50 μM z-VAD. At the indicated time points, the cells were harvested and immunoblotted. […] FIG. 3F is an autoradiograph showing the ^35[S] radioactivity in lysates containing ^35[S]-Mcl-1 at the indicated time points. ^35[S]-labeled Mcl-1 protein was incubated in cell-free lysates prepared from BT474 and rBT474 cells (top) or SKBR3 and rSKBR3 cells (bottom). […] FLAG-Mcl-1 was retrieved by immunoprecipitation using anti-flag agarose, and Mcl-1 ubiquitylation was analyzed by immunoblotting for HA (*non-specific band, **IgG heavy chain). […]

[4] = system: caspase-9 / caspase-3 activation; test: Cytochrome c-induced caspase activation in cell lysates; assay type: cell-based; conditions: lysates of resistant cells cultured in the presence of lapatinib
CAS-MDM2 interaction = target: T1, CAS-MDM2 interaction (Homo sapiens, UniProt Q00987); test: CAS-MDM2 co-immunoprecipitation; assay type: cell-based; conditions: 1 μM lapatinib, 24 hours
T1 construct: association of endogenous MDM2 was analyzed by immunoblotting; expressed in transfected cells; host or cells: BT474 and rBT474 cells transfected with FLAG-CAS; MDM2 endogenous

BT474 xenografts = test: BT474 mammary fat pad xenograft; conditions: 100 mg/kg each drug, twice daily by oral gavage
rBT474 xenografts = test: rBT474 mammary fat pad xenograft; conditions: 100 mg/kg each drug, twice daily by oral gavage
rAU565-derived tumor = test: rAU565 mammary fat pad xenograft; conditions: 100 mg/kg each drug, twice daily by oral gavage
[5] = system: mitochondrial cytochrome c release; test: Western blot for cytochrome c in cytosolic lysates lacking mitochondria; conditions: 1 μM lapatinib, 24 hours

T1 sequence (Q00987 whole entry): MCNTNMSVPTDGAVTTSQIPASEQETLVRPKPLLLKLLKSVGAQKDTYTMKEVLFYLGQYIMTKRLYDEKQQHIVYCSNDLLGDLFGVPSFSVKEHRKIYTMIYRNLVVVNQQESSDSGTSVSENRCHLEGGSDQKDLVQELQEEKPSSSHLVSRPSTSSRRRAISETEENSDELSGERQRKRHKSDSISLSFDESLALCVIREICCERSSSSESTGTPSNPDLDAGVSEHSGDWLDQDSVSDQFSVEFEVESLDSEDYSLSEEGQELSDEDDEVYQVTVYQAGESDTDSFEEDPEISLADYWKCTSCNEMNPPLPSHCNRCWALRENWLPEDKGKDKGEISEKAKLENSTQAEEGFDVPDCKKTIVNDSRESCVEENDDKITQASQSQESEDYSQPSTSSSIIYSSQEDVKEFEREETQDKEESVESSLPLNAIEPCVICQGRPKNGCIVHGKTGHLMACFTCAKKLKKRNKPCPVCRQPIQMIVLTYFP
Chain of HER2 (P04626 23-1255): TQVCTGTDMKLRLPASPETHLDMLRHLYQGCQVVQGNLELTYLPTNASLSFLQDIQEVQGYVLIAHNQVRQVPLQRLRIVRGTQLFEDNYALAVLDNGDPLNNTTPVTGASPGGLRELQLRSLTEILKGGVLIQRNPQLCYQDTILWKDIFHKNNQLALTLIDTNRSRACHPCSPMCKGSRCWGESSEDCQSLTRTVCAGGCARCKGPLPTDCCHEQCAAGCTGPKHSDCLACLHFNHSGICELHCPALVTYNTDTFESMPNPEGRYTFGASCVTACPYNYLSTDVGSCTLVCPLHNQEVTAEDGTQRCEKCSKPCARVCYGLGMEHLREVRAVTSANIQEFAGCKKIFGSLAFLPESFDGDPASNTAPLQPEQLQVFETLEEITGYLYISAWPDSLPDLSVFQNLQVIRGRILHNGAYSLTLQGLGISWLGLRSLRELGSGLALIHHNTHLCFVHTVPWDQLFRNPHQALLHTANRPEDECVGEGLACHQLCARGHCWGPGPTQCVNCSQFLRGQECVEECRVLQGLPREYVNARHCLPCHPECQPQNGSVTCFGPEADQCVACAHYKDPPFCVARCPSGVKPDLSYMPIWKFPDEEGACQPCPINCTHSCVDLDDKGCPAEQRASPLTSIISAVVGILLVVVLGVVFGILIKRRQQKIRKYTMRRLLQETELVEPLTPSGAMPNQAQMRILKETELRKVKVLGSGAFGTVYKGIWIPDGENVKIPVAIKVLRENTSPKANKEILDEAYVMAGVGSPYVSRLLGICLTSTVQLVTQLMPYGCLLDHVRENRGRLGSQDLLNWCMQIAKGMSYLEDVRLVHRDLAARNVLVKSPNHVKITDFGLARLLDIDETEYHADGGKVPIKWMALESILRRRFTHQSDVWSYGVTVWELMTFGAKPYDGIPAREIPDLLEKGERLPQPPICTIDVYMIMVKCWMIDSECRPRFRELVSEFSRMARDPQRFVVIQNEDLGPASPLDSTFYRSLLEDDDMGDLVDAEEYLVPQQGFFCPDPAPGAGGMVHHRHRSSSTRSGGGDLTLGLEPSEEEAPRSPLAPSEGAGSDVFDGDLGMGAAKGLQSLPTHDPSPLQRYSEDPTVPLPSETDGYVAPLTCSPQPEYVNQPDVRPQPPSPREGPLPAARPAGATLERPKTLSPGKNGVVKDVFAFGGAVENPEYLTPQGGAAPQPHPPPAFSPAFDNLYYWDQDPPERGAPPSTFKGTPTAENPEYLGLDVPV

- HER2 tyrosine autophosphorylation (HER2): inhibited
- CAS-MDM2 interaction (CAS-MDM2 interaction; BT474 cells): decreased
- CAS-MDM2 interaction (CAS-MDM2 interaction; rBT474 cells): enhanced
Compound: CS(=O)(=O)CCNCc1ccc(-c2ccc3ncnc(Nc4ccc(OCc5cccc(F)c5)c(Cl)c4)c3c2)o1 [lapatinib]
- apoptotic cell death in response to lapatinib [1]: died from apoptosis
- Mcl-1 protein levels (Mcl-1 [2]; resistant cells): increased
- Mcl-1 protein levels (Mcl-1 [2]; sensitive cells): decreased
- Mcl-1 ubiquitylation (Mcl-1 [3]; SKBR3 cells): enhanced
- Mcl-1 ubiquitylation (Mcl-1 [3]; rSKBR3 cells): diminished
- cytochrome c-induced caspase activation [4]: strong defects in caspase activation
- growth of BT474-derived tumors (BT474 xenografts): significantly suppressed
- rBT474-derived tumor growth (rBT474 xenografts): Neither lapatinib nor Nutlin-3 inhibited
- rAU565-derived tumor growth (rAU565-derived tumor): not rAU565-derived tumor growth
- mitochondrial cytochrome c release ([5]; parental BT474 cells): induced mitochondrial cytochrome c release in parental BT474 cells
- mitochondrial cytochrome c release ([5]; rBT474 cells): not rBT474 cells

Source: US9937178B2, “Methods of identifying and using MDM2 inhibitors” (DUKE UNIVERSITY, priority 2011, dated 2018)
